Source: US20240246942A1, “KINASE INHIBITORS FOR THE TREATMENT OF NEURODEGENERATIVE DISEASES” (priority 2020, published 2024)
Like-named read-outs stand apart in the source and are kept apart here.

Assays:
Experiment in all cases: biochemical
[1] = target: T1, panel of 374 wild-type kinases (Homo sapiens, UniProt Q04759); conditions: read-out: % Enzyme Activity (relative to DMSO controls), kinase PKCtheta
T1 construct: purchased Reaction Biology Corporation

[2] = target: T2, panel of 374 wild-type kinases (Homo sapiens, UniProt Q6DT37); conditions: read-out: % Enzyme Activity (relative to DMSO controls), DMPK2
T2 construct: purchased Reaction Biology Corporation

[3] = target: T3, panel of 374 wild-type kinases (Homo sapiens, UniProt Q02763); conditions: read-out: % Enzyme Activity (relative to DMSO controls), kinase TIE2/TEK
T3 construct: purchased Reaction Biology Corporation

[4] = target: T4, panel of 374 wild-type kinases (Homo sapiens, UniProt Q9BWU1); conditions: read-out: % Enzyme Activity (relative to DMSO controls), CDK19/cyclin C
T4 construct: purchased Reaction Biology Corporation
T4 sequence (Q9BWU1 whole entry): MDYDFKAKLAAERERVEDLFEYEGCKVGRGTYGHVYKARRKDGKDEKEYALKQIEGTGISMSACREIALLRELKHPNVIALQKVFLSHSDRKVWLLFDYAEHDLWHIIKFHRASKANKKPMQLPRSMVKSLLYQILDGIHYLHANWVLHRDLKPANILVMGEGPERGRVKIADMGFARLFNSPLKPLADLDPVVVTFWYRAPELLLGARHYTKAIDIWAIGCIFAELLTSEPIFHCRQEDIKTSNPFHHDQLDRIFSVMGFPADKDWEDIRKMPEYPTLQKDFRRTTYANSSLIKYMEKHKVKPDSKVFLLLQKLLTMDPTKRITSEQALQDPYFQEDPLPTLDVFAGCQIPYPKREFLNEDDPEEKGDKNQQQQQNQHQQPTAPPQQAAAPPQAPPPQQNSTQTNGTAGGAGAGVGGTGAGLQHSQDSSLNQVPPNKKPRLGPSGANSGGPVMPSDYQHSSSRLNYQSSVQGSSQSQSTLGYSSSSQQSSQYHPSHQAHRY

[5] = target: T5, panel of 374 wild-type kinases (Homo sapiens, UniProt P24941)
T5 construct: purchased Reaction Biology Corporation

[6] = target: T6, panel of 374 wild-type kinases (Homo sapiens, UniProt P35968); conditions: read-out: % Enzyme Activity (relative to DMSO controls), KDR/VEGFR2
T6 construct: purchased Reaction Biology Corporation
T6 sequence (P35968 20-1356): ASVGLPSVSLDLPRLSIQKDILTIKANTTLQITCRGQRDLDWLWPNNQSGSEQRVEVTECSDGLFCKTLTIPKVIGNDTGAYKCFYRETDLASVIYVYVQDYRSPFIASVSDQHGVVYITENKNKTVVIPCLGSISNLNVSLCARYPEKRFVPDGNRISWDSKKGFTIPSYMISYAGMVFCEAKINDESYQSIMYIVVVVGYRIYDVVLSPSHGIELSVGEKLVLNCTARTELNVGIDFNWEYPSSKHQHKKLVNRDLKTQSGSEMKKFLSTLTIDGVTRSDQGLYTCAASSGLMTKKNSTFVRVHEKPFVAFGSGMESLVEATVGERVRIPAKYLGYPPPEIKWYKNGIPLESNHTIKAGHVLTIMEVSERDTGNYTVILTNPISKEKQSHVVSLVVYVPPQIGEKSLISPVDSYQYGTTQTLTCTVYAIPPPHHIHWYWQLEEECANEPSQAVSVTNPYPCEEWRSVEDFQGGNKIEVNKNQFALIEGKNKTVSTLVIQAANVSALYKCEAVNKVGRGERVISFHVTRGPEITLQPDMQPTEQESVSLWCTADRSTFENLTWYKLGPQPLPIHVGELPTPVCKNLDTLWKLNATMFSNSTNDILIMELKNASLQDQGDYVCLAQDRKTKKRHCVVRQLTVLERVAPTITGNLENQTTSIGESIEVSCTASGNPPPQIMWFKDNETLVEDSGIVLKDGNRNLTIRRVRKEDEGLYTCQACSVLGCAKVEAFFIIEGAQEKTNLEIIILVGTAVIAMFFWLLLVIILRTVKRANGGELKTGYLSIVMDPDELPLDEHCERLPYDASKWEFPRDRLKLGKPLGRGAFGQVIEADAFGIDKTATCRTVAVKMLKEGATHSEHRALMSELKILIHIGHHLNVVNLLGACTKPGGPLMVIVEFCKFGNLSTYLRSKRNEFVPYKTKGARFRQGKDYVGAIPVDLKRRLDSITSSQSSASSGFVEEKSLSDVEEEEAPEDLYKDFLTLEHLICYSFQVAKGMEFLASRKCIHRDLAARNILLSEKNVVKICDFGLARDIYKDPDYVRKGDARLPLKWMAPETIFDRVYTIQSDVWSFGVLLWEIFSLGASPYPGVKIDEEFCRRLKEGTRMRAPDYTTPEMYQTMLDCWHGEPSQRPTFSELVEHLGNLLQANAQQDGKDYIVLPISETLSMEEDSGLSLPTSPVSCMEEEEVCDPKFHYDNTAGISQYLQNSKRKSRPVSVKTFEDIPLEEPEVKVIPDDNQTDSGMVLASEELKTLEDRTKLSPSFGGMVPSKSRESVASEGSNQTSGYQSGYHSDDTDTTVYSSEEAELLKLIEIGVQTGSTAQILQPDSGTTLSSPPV

[7] = target: T7, panel of 374 wild-type kinases (Homo sapiens, UniProt Q86Z02); conditions: read-out: % Enzyme Activity (relative to DMSO controls), HIPK1
T7 construct: purchased Reaction Biology Corporation
T7 sequence (Q86Z02 whole entry): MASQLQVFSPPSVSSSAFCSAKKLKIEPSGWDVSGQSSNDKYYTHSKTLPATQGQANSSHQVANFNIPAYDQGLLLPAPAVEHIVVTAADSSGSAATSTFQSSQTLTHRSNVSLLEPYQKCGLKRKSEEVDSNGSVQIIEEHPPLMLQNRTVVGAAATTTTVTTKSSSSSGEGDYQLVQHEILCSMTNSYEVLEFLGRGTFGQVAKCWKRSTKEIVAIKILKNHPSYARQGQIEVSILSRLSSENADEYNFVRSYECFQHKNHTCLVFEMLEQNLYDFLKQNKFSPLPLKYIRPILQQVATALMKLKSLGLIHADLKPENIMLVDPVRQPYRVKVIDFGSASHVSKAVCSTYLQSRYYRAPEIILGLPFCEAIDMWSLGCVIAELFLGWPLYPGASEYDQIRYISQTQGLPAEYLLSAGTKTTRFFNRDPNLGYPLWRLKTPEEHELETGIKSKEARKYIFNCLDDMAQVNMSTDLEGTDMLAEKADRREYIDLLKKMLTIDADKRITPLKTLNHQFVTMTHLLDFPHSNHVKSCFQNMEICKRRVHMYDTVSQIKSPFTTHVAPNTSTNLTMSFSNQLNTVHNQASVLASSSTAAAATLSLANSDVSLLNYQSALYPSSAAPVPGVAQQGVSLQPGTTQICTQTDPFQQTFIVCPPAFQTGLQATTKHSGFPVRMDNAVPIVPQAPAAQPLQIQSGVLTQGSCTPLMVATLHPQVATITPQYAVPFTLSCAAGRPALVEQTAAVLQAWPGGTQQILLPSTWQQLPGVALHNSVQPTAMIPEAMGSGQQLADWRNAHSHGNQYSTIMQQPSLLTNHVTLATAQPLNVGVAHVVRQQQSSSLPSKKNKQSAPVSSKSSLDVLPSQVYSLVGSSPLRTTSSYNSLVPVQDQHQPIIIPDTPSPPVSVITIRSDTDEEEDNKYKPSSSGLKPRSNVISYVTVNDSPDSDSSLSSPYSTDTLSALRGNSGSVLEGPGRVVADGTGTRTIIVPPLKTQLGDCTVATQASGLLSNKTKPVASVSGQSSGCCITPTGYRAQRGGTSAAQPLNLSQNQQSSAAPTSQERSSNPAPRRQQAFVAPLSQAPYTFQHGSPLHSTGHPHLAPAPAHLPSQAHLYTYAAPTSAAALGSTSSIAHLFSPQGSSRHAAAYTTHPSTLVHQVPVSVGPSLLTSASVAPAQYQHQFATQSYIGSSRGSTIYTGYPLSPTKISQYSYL

[8] = target: T8, panel of 374 wild-type kinases (Homo sapiens, UniProt Q05397); conditions: read-out: % Enzyme Activity (relative to DMSO controls), FAK/PTK2
T8 construct: purchased Reaction Biology Corporation
T8 sequence (Q05397 whole entry): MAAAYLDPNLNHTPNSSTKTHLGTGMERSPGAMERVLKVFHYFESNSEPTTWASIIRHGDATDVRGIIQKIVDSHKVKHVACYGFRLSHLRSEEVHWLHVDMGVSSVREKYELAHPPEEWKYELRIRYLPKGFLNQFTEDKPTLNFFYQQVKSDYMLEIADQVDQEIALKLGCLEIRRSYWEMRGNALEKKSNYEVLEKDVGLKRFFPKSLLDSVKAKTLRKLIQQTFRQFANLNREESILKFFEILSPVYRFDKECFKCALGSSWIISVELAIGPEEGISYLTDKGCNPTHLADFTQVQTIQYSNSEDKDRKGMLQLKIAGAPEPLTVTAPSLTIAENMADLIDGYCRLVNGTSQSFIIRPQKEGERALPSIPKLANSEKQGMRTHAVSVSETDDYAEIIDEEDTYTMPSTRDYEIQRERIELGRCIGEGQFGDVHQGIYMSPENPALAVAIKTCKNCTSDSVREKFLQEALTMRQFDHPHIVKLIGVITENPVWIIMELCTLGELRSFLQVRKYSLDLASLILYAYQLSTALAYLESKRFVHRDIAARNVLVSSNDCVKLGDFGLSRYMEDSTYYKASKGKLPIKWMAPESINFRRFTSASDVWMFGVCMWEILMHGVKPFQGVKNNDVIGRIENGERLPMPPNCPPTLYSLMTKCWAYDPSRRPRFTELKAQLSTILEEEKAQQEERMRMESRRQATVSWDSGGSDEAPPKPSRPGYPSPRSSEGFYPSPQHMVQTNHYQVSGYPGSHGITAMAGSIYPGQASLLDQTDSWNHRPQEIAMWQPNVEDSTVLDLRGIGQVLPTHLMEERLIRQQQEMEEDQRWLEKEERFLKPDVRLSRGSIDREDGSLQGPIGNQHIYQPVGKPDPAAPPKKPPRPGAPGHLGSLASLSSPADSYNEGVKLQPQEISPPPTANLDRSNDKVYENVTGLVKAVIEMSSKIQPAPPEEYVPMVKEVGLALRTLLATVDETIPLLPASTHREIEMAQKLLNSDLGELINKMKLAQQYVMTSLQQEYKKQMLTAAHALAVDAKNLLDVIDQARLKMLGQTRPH

[9] = target: T9, panel of 374 wild-type kinases (Homo sapiens, UniProt P23443); conditions: read-out: % Enzyme Activity (relative to DMSO controls), kinase p70S6K/RPS6KB1
T9 construct: purchased Reaction Biology Corporation
T9 sequence (P23443 whole entry): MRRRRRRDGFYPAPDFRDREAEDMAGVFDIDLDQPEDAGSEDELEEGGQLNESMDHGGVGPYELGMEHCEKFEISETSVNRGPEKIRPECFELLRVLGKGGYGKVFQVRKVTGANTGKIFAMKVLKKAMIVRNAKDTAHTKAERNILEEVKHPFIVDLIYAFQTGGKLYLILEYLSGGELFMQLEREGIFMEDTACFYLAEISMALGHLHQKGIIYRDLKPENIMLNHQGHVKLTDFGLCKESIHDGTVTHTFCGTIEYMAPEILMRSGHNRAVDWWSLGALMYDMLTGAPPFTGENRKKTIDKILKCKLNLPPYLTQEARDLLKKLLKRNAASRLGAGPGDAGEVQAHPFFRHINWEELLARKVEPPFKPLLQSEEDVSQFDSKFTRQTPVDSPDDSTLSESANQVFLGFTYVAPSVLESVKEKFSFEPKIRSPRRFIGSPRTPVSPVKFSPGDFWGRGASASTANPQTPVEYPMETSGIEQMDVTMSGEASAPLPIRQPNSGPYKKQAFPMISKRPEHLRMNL

[10] = target: T10, panel of 374 wild-type kinases (Homo sapiens, UniProt Q52WX2); conditions: read-out: % Enzyme Activity (relative to DMSO controls), kinase SBK1
T10 construct: purchased Reaction Biology Corporation

[11] = target: T11, panel of 374 wild-type kinases (Homo sapiens, UniProt P51817); conditions: read-out: % Enzyme Activity (relative to DMSO controls), kinase PRKX
T11 construct: purchased Reaction Biology Corporation
T11 sequence (P51817 1-358): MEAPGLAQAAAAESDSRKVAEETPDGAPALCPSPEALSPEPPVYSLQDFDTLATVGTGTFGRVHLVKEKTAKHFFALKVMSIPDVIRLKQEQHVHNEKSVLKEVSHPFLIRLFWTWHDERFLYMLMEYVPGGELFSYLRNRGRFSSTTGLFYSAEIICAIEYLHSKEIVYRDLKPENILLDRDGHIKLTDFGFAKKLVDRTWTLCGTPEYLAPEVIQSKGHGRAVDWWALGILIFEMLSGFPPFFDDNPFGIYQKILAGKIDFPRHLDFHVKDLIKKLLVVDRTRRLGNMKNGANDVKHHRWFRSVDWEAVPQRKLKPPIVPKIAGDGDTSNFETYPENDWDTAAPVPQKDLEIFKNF

[12] = target: T12, panel of 374 wild-type kinases (Homo sapiens, UniProt P11309); conditions: read-out: % Enzyme Activity (relative to DMSO controls), kinase PIM1
T12 construct: purchased Reaction Biology Corporation
T12 sequence (P11309 whole entry): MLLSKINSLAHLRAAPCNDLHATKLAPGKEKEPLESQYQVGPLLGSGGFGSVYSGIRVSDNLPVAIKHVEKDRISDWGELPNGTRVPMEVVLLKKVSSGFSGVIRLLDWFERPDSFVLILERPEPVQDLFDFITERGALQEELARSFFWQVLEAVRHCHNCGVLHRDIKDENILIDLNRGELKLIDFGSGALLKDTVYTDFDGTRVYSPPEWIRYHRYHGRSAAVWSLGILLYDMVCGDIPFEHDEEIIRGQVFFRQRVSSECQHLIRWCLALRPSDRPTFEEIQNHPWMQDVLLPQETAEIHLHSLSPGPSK

[13] = target: T13, panel of 374 wild-type kinases (Homo sapiens, UniProt Q9NYY3); conditions: read-out: % Enzyme Activity (relative to DMSO controls), kinase PLK2
T13 construct: purchased Reaction Biology Corporation

[14] = target: T14, panel of 374 wild-type kinases (Homo sapiens, UniProt P37173); conditions: read-out: % Enzyme Activity (relative to DMSO controls), kinase TGFBR2
T14 construct: purchased Reaction Biology Corporation

[15] = target: T15, panel of 374 wild-type kinases (Homo sapiens, UniProt Q8TDC3); conditions: read-out: % Enzyme Activity (relative to DMSO controls), BRSK1
T15 construct: purchased Reaction Biology Corporation
T15 sequence (Q8TDC3 1-778): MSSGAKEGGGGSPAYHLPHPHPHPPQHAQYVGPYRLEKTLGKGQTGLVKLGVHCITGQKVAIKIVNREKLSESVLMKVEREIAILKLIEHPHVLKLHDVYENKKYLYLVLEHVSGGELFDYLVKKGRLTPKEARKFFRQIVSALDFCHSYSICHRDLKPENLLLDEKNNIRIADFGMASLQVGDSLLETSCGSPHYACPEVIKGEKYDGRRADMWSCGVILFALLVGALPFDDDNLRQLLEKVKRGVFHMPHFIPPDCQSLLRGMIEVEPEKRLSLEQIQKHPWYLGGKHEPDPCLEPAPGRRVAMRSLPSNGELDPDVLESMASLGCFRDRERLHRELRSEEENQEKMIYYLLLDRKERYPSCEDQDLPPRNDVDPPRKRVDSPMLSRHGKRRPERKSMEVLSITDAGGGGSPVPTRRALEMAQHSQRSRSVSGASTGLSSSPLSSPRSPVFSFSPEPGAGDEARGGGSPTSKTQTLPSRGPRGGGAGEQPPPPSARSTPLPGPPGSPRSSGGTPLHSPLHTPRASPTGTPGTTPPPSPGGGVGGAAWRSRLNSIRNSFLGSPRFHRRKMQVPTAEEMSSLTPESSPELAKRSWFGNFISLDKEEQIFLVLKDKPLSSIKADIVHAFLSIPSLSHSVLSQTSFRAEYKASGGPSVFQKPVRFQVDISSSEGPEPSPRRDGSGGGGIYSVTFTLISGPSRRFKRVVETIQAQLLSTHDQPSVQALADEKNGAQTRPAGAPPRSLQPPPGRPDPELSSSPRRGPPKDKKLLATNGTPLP

[16] = read-out: % Enzyme Activity (relative to DMSO controls), CDK2/Cyclin A1
[17] = read-out: % Enzyme Activity (relative to DMSO controls), CDK2/cyclin A
[18] = read-out: % Enzyme Activity (relative to DMSO controls), CDK2/cyclin E2
[19] = read-out: % Enzyme Activity (relative to DMSO controls), CDK2/cyclin E
[20] = read-out: % Enzyme Activity (relative to DMSO controls), CDK2/cyclin O

Compound	remaining activity at 5 µM [1]	remaining activity at 5 µM [2]	remaining activity at 5 µM [3]	remaining activity at 5 µM [4]	remaining activity at 5 µM [5, 16]	remaining activity at 5 µM [5, 17]	remaining activity at 5 µM [5, 18]	remaining activity at 5 µM [5, 19]	remaining activity at 5 µM [5, 20]	remaining activity at 5 µM [6]	remaining activity at 5 µM [7]	remaining activity at 5 µM [8]	remaining activity at 5 µM [9]	remaining activity at 5 µM [10]	remaining activity at 5 µM [11]	remaining activity at 5 µM [12]	remaining activity at 5 µM [13]	remaining activity at 5 µM [14]	remaining activity at 5 µM [15]	further results
O=C(Nc1cnn(-c2csc(C(=O)NC3COC3)c2)c1)Nc1ccccc1Cl [Compound 17, 4-(4-(3-(2-chlorophenyl)ureido)-1H-pyrazol-1-yl)-N-(oxetan-3-yl)thiophene-2-carboxamide]	114%	87%	100%	105%	106%	93.6%	107%	99%	93.2%	95.2%	96.3%	95.7%	92.1%	99.1%	104%	64.6%	86%	113%	85.5%	–
Cc1sc(C(=O)NC2COC2)cc1-n1cc(NC(=O)Nc2c(F)cccc2Cl)cn1 [Compound 27, 4-(4-(3-(2-chloro-6-fluorophenyl)ureido)-1H-pyrazol-1-yl)-5-methyl-N-(oxetan-3-yl)thiophene-2-carboxamide]	–	–	–	–	–	–	–	–	–	–	–	–	–	–	–	–	–	–	–	remaining activity at 10 µM ([1]; 10 uM): 96.9%; remaining activity at 10 µM ([2]; 10 uM): 118%; remaining activity at 10 µM ([3]; 10 uM): 86.6%; remaining activity at 10 µM ([4]; 10 uM): 98.1%; remaining activity at 10 µM [5, 16]: 111%; remaining activity at 10 µM [5, 17]: 98.3%; remaining activity at 10 µM [5, 18]: 90.8%; remaining activity at 10 µM [5, 19]: 106%; remaining activity at 10 µM [5, 20]: 105%; remaining activity at 10 µM ([6]; 10 uM): 88.2%; remaining activity at 10 µM ([7]; 10 uM): 116%; remaining activity at 10 µM ([8]; 10 uM): 104%; remaining activity at 10 µM ([9]; 10 uM): 92.1%; remaining activity at 10 µM ([10]; 10 uM): 87.5%; remaining activity at 10 µM ([11]; 10 uM): 87.5%; remaining activity at 10 µM ([12]; 10 uM): 95.1%; remaining activity at 10 µM ([13]; 10 uM): 95.2%; remaining activity at 10 µM ([14]; 10 uM): 86.8%; remaining activity at 10 µM ([15]; 10 uM): 87.8%
O=C(Nc1cnn(-c2csc(C(=O)NC3COC3)c2)c1)Nc1c(F)cccc1Cl [Compound 25, 4-(4-(3-(2-chloro-6-fluorophenyl)ureido)-1H-pyrazol-1-yl)-N-(oxetan-3-yl)thiophene-2-carboxamide]	94.7%	119%	105%	96.2%	94.2%	93.8%	98.9%	94.6%	94.1%	88.3%	91.7%	89%	97.7%	97.7%	91.5%	73.3%	100%	82.6%	99.4%	–
